Results on two compounds are retold here after publication PMC12006963, “Application of Deuterium in an M1 Positive Allosteric Modulator Back-Up Program: The Discovery of VU6045422” (ACS Chemical Neuroscience, 2025).

Entries after “also recorded” stand apart in the source; their conditions may differ.

In one data set the target is CYP 3A4 (Homo sapiens, UniProt P08684). More on the design: method as in PMID 39660766. The note with it: in words; cited from earlier work.
The next data set concerns the target Adrenergic β1 (Homo sapiens, UniProt P08588). Description: Eurofins radioligand binding.
The next data set concerns the target Adrenergic α1A (Homo sapiens, UniProt P35348). Description: Eurofins radioligand binding.
The subject of another data set is CYP. In words: Time-dependent CYP inhibition. The format is in vitro ADME. The settings on record: in words.
Data set [1] deals with bacterial mutagenicity (4-strain with and without S9). In words: Bacterial mutagenicity mini-AMES assay. Format: cell-based.
In the next data set the test system is Purinergic P2X. In words: Eurofins radioligand binding. More on the design: species or system Rat.
For another data set, the target named is Tachykinin NK1 (Homo sapiens, UniProt P25103). In words: Eurofins radioligand binding.
The target of data set [2] is Transporter, Dopamine (DAT) (Homo sapiens, UniProt Q01959). Description: Eurofins radioligand binding.
Chain of Transporter, Dopamine (DAT) (Q01959 whole entry, canonical isoform): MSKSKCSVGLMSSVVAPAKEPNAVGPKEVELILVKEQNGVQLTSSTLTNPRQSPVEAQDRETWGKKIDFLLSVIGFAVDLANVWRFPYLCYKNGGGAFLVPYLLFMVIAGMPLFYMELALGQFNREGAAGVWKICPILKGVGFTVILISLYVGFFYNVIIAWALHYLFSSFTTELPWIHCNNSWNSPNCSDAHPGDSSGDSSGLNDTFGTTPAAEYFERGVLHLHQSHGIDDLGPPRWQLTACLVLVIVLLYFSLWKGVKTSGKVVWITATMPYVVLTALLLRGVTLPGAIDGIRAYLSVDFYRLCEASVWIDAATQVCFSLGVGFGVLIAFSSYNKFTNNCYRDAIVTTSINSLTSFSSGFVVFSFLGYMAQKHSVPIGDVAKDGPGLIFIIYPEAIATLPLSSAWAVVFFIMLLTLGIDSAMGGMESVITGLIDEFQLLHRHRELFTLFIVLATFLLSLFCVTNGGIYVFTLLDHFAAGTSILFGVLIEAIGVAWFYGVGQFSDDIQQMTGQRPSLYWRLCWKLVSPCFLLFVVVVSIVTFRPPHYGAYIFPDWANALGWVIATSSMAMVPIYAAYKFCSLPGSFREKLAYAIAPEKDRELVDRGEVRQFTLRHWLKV
Another data set has as its target CYP 3A5 (Homo sapiens, UniProt P20815). Description: CYP isoform contribution to metabolism: 3A5. The format is in vitro ADME.
The target in another data set is Neuropeptide Y Y1 (Homo sapiens, UniProt P25929). Description: Eurofins radioligand binding.
Chain of Neuropeptide Y Y1 (P25929 whole entry): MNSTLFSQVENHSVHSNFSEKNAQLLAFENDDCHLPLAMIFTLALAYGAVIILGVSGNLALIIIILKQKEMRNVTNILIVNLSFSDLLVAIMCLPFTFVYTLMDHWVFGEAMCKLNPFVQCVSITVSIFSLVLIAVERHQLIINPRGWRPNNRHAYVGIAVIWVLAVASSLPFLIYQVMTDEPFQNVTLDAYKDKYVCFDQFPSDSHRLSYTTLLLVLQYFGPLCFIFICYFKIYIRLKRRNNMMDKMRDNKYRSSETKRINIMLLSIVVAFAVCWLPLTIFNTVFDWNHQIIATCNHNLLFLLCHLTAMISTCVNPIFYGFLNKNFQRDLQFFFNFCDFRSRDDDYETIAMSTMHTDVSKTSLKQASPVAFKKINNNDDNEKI
A further data set has as its target Sigma σ1 (Homo sapiens, UniProt Q99720). Description: Eurofins radioligand binding.
A further data set addresses Cannabinoid CB1 (Homo sapiens, UniProt P21554). Description: Eurofins radioligand binding.
A further data set concerns the target Melatonin MT1 (Homo sapiens, UniProt P48039). Description: Eurofins radioligand binding.
The next data set has as its target Glucocorticoid (Homo sapiens, UniProt P04150). In words: Eurofins radioligand binding.
Another data set has as its target Serotonin (5-HT3) (Homo sapiens, UniProt P46098). Description: Eurofins radioligand binding.
In another data set the target is Adrenergic α1B (Homo sapiens, UniProt P35368). In words: Eurofins radioligand binding.
The next data set addresses Androgen (Testosterone) (Homo sapiens, UniProt P10275). In words: Eurofins radioligand binding.
In data set [3] the test system is fEPSPs in layer V medial prefrontal cortex (mPFC). Description: Slice electrophysiology, long-term depression of fEPSPs. More on the design: species or system mouse. The settings on record: 10 μM; layer V recording, stimulation in layer II/III; n = 9. Here is the method: While ago-PAMs induce substantial long-term depression that correlates with a lack of robust procognitive efficacy,[14],[16]−[21] […] Thus, PAM 5 maintains activity dependence of PFC function (Figure 3), and it is expected to display robust precognitive efficacy.
(A) Normalized time course of the fEPSP slope during baseline, application of 10 μM VU6045422 and washout. (B) Bar graph summarizing the averaged fEPSP slope during the last 5 min of washout (gray bar in panel (A)) compared to the baseline period (ns, p > 0.05, two-tailed paired t test, n = 9).

The target in another data set is Adenosine A1 (Homo sapiens, UniProt P30542). In words: Eurofins radioligand binding.
Chain of Adenosine A1 (P30542 whole entry): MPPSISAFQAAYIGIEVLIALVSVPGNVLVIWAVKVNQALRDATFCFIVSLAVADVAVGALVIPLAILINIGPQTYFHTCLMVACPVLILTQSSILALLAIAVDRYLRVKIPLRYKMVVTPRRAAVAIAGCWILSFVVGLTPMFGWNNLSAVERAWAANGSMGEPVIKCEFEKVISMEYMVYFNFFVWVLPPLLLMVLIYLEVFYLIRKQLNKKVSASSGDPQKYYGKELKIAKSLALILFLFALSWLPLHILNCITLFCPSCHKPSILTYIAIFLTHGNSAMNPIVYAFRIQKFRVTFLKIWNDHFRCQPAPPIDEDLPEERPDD
In data set [4] the target is Transporter, Norepinephrine (NET) (Homo sapiens, UniProt P23975). In words: Eurofins radioligand binding.
Another data set has as its target Potassium Channel [KATP] (Cricetus cricetus, UniProt Q09427). Description: Eurofins radioligand binding. More on the design: species or system Hamster.

Usually inhibition stands for the change of the read-out against control, counted positive when it falls. For orientation: % Inhibition means the relative decrease from the control value, in per cent. High values mean a response far below the control, low ones a response near the control.

Chain of CYP 3A4 (P08684 whole entry): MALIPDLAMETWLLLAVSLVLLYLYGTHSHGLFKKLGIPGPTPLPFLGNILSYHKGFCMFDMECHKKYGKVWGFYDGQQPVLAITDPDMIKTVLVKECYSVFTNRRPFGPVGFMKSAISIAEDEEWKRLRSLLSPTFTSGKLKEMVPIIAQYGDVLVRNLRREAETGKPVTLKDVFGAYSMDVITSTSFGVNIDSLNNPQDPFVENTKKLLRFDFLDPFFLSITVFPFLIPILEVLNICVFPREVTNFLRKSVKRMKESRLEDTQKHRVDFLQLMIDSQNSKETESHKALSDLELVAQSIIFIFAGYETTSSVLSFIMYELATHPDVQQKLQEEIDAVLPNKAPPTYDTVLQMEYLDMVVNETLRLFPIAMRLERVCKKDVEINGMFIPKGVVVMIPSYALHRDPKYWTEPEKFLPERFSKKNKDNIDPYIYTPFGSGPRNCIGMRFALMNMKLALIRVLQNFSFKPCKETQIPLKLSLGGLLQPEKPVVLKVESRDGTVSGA
Chain of CYP 3A5 (P20815 whole entry, canonical isoform): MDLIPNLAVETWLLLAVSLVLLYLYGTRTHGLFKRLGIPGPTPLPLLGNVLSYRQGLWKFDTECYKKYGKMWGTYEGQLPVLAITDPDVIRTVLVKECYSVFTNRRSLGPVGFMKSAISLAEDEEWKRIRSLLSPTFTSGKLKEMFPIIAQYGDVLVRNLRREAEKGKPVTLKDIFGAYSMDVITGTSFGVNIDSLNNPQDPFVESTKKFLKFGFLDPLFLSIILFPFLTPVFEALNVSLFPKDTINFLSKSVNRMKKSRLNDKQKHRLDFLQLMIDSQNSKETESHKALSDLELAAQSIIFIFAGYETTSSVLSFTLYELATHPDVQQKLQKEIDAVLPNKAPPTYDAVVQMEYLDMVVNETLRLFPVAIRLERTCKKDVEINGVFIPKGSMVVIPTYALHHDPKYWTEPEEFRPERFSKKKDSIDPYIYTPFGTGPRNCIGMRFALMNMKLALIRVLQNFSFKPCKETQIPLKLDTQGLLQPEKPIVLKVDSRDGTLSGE
Chain of Potassium Channel [KATP] (Q09427 whole entry): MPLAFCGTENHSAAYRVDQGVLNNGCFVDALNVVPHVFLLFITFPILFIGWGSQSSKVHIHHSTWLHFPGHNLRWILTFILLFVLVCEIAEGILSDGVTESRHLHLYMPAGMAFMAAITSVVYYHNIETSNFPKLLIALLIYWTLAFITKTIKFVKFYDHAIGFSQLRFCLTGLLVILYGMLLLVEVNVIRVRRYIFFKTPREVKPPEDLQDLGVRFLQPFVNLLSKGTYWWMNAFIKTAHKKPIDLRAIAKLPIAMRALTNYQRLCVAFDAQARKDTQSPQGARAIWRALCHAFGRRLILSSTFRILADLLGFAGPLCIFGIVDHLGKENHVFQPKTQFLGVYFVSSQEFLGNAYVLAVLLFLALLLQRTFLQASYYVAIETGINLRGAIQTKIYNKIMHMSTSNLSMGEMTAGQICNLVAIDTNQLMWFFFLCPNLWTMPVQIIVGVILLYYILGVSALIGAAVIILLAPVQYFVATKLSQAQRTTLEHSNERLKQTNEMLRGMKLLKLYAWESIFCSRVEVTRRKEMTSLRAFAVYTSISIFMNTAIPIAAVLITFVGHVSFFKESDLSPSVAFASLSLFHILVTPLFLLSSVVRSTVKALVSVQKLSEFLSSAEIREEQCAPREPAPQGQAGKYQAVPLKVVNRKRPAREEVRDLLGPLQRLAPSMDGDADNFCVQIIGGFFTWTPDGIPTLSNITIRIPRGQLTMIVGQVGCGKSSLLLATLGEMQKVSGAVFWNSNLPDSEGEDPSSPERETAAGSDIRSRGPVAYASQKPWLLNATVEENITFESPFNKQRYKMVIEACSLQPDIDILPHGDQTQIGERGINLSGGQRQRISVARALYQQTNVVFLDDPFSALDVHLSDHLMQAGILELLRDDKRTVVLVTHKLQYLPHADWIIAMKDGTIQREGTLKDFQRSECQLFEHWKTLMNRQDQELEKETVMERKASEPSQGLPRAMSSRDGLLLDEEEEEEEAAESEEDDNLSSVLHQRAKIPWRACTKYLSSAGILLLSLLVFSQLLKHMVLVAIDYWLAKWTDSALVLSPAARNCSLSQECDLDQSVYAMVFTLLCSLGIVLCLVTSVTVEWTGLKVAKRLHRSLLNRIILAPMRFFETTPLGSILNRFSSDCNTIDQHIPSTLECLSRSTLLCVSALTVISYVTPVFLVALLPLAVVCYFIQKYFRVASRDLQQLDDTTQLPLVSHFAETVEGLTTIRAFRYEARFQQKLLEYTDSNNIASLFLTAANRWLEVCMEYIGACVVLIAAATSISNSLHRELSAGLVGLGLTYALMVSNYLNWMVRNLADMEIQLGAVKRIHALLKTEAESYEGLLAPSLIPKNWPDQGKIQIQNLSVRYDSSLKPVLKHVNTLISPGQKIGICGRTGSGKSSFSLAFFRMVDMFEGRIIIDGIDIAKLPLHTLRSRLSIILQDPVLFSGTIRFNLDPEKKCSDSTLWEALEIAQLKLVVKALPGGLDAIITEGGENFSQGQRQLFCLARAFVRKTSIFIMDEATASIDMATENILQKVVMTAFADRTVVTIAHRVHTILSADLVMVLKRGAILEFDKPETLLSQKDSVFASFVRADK
Chain of Androgen (Testosterone) (P10275 whole entry): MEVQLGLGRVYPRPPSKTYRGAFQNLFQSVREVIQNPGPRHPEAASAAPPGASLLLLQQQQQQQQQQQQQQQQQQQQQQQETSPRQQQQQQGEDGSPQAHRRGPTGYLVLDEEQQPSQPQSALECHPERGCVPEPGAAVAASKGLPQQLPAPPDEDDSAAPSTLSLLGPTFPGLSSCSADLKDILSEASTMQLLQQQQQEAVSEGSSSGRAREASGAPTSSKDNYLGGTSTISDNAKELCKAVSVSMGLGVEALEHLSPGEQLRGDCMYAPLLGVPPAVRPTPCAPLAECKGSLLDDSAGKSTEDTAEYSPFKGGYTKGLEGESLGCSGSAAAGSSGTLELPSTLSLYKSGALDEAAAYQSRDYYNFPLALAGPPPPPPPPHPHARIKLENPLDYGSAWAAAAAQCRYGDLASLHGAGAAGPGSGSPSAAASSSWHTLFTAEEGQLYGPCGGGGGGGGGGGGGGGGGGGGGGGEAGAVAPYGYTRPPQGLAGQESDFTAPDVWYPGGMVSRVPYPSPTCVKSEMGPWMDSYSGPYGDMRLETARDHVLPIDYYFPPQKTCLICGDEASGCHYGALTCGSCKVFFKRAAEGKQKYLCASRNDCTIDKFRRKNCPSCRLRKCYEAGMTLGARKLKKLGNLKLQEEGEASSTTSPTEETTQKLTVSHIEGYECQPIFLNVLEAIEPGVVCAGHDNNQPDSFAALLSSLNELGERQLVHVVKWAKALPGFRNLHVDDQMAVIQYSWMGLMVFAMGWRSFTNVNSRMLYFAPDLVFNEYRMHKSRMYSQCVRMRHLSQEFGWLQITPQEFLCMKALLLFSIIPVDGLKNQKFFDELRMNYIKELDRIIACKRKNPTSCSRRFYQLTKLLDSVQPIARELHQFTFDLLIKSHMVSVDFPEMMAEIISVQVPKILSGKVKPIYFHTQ

Consider `Cn1cc2c(-c3cc(F)c(CN4Cc5ncccc5C4=O)c(F)c3)cccc2n1` [compound 1], for which the “CYP isoform responsible for metabolism” value on CYP 3A4 is listed as “solely metabolized by CYP 3A4”.

As to `[2H]C1([2H])c2ncccc2C(=O)N1Cc1c(F)cc(-c2cccc3nn(C([2H])([2H])[2H])cc23)cc1F` [compound 5], the inhibition at 10 µM on Adrenergic β1 was 2%; on Adrenergic α1A, 8%; at Tachykinin NK1 it was 4%; in [2], 32%; on Neuropeptide Y Y1, -13%; at Sigma σ1, 11%. In addition, the inhibition at 10 µM was -3% at Cannabinoid CB1; 5% at Melatonin MT1; 13% at Glucocorticoid; -9% at Serotonin (5-HT3); 10% at Adrenergic α1B; 0% at Androgen (Testosterone). Besides, the figures for the inhibition at 10 µM (at Adenosine A1; in data set [4]; on Potassium Channel [KATP]) were 30%, 12% and 24%, respectively. For the same compound, the “time-dependent CYP inhibition liability” value with CYP is recorded as “no time-dependent CYP inhibition or CYP induction liabilities”. Moreover, the “bacterial mutagenicity mini-AMES result” value in data set [1] is on record as “negative”. Moreover, the “% Inhibition at 10 µM” value in the data set on Purinergic P2X is reported as 4%. In addition, the “contribution of CYP 3A5 to metabolism” value on CYP 3A5 was 5.8%. The “change in fEPSPs / long-term depression” value in data set [3] is on record as “no significant changes; also recorded: did not induce a significant long-term depression”.
